What was measured:
skin = settings: rat; cited from earlier work
human keratinocytes = settings: cited from earlier work
fibroblast = settings: cited from earlier work
[1] = Solubility of DHEA at ambient temperature in different solvents (HPLC of supernatant); format: physicochemical; settings: ambient temperature (25° C.), after 24 hours
Method: The solubility of DHEA was evaluated at ambient temperature in different solvents. For this purpose the DHEA was dispersed in excess in the solvent in question, which had been brought to 60° C. beforehand. This temperature was maintained for one hour, with stirring using a magnetic bar. The suspension was subsequently returned to ambient temperature (25° C.). After 24 hours the suspension was centrifuged in order to remove the undissolved DHEA crystals. The supernatant was taken and checked for the absence of DHEA crystals by cross-polarized light microscopy. This supernatant was subsequently analysed by HPLC. The amount of DHEA detected is taken to correspond to its maximum solubility in the solvent in question.

| Compound | elastin content and collagen content of the skin (skin) | thickness of the dermis (skin) | viability of human keratinocytes (human keratinocytes) | fibroblast proliferation (fibroblast) | DHEA solubility ([1]; solvent Dipropylene glycol) | DHEA solubility ([1]; solvent Glycerol) | DHEA solubility ([1]; solvent PEG-400) | DHEA solubility ([1]; solvent Propylene glycol) | DHEA solubility ([1]; solvent Sorbitol) |
| --- | --- | --- | --- | --- | --- | --- | --- | --- | --- |
| C[C@]12CC[C@H](O)CC1=C[C@@H](O)[C@@H]1[C@@H]2CC[C@]2(C)C(=O)CC[C@@H]12 [7α-hydroxy-DHEA] | increases | increases | increase | increase |  |  |  |  |  |
| C[C@]12CC[C@H](O)CC1=CC[C@@H]1[C@@H]2CC[C@]2(C)C(=O)CC[C@@H]12 [DHEA, dehydroepiandrosterone] |  |  |  |  | 10.48% by weight | 0.15% by weight | 3.67% by weight | 5.88% by weight | 0.05% by weight |
